We go through five molecules from US8426448B2, “1,5-diphenyl-pyrrolidin-2-one compounds as CB-1 ligands” (Eli Lilly and Company, priority 2008, dated 2013).

One series deals with Male NIH Swiss mice. Description: Forced swim test (FST). Format: in vivo. As to conditions: for minimum effective dose (MED) in forced swim test: Dunett's Test (0.05) statistically significant; for Seconds of immobility: last 4 min of 6 min swim, n = 8; for Dunett's Test (0.05) * against vehicle, # against Imipramine: immobility time. The arrangement: key to Dunett's Test (0.05) * against vehicle, # against Imipramine: * against vehicle; # against Imipramine. The text has this:
The forced swim test is a well established animal model for depression, anxiety and avolition (lack of motivation)(Porsolt, et al. Nature (1977) 266, 730) (J. M. Witkin et al., Trends Pharmacol Sci. 2005 26:609-17). It can also be used as a model for the treatment of negative symptoms of schizophrenia.
Male NIH Swiss mice (Harlan Sprague-Dawley) are housed 12 mice/cage for 7-10 days prior to testing. On the day of testing, mice weighing 25-30 g, are brought to the testing room at least 1 hr. prior to dosing. Mice are dosed (p.o.) at 6-8 min. intervals with either vehicle (1% CMC/0.5% SLS/0.08% povidone/0.05 antifoam for CB1 inverse agonists) or test compound and put it into a clean cage (4 mice/cage).
To test, mice are placed individually in clear plastic cylinders (about 10 cm diameter×25 cm height) filled to 6 cm with water at 22-25° C. for six min. The duration of immobility during the last 4 min. is recorded. A mouse is regarded as immobile when floating motionless or making only those movements necessary to keep its head above the water.
The immobility time (in seconds) is analyzed by ANOVA using Dunnett's test. The minimum effective dose (MED) is considered to be the lowest dose of test compound at which a statistically significant decrease in the immobility time is observed versus the vehicle control.

A short description of a further series: Rat oral bioavailability. In kind it is in vivo. As to conditions: Sprague-Dawley, plasma, fasted male SD rats, IV 0.25 mg/kg (20% MEOP/80% water), PO 1 mg/kg (1% NaCMC/0.5% SLS/0.05% antifoam), based on AUC0-∞. How it is done:
(§1) Cohorts of three or four 250-450 gram male Sprague-Dawley rats or approximately 10 kg Beagle dogs (female or male) are used. […] Dogs are administered i.v. by cannulated cephalic vein and blood collections are by jugular vein. Animals are first dosed at 0.25 mg/kg i.v. and blood samples (0.2 mL) are then collected using EDTA as an anticoagulant at 0.0830, 0.25, 0.50, 1, 2, 4, 8, 12, 24, 48, 72, 96, and 120 hours. Next after at least two days and after 18-24 hours fasting, the animals are dosed at 1.0 mg/kg by oral gavage. During the course of a study the total of blood (ml) collected is not to exceed 1% of total body weight in grams. Should larger blood volumes be required, the sampled blood volume is replace with heparinized whole blood from a donor animal. When using a cross-over study design, rats receive a volume of heparinized whole blood following the final sample of each study day approximately equal to that removed during study.
(§2) Compound plasma concentrations are measured by LC/MS/MS assays. Data are then analyzed using standard non-compartmental pharmacokinetic analysis. Oral bioavailability is calculated as: (AUC0-infinity,oral/AUC0-infinity,i.v.)×(Dose,i.v./Dose,oral)×100%

A further series in a line: Dog oral bioavailability. Format: in vivo. To be noted: plasma; fasted male beagle dog; IV 0.25 mg/kg, PO 1 mg/kg; Mean±SD, n=3; based on AUC0-24hr. The method, then:
as §1, §2

In series [1] the target is T1, hCB-1 (Homo sapiens, UniProt P21554). Description: hCB1-CHO antagonist mode SPA GTP-γ-35S binding assay. On the set-up: purchased Applied Cell Sciences, Rockville, Md; host or cells: CHO cell membranes. Format: biochemical. To be noted: antagonist mode vs methanandamide; read-out: hCB-1 SPA GTPγS CHO Membrane Antagonist Kb. How it is done: (§3) Compounds of the present invention may be tested for functional activity at the CB-1 and CB-2 receptors in both agonist and antagonist modes using SPA (Scintillation Proximity Assay) based GTP-γ-^35S binding assays. All assay components are prepared in assay buffer (20 mM HEPES, 100 mM NaCl, 5 mM MgCl2, pH 7.4) at room temperature. Semi-log dilutions of test compound are prepared in assay buffer containing BSA (0.125% final conc.) for the agonist mode assays. For the antagonist mode assays, test compounds are prepared in the same manner but also include an 80% efficacious dose of a full agonist (methanandamide). GTP-γ^35S binding for the antagonist assay may be measured in a 96 well format using a modification of an antibody capture technique previously described. (DeLapp, N W, et al. (1999) J Pharmacol Exp Ther 289:946-955.) The CB-2 receptor agonist activity may be measured using a similar method using hCB2-Sf9 membranes. The CB-1 receptor agonist activity may be measured using a whole membrane capture technique using hCB1-CHO membranes. All incubations are done at room temperature.
(§4) hCB1-CHO or rCB1-CHO membranes (Applied Cell Sciences, Rockville, Md.) and GDP (1 μM final) are added to ice cold assay buffer and homogenized. […] Plates are then centrifuged at 700×g for 10 min. and the radioactivity counted.
(§5) Data are analyzed as follows: Background is subtracted from all wells. […] Percent antagonist inhibition is calculated by first normalizing the data to the signal generated by a saturating concentration of the full agonist (methanandamide). Then the data are analyzed using a 4-parameter logistic reduced fit (Activity Base™ and XLFit3™ from IDBS, Emeryville, Calif.). Kb values are determined using a modification of the Cheng-Prusoff relationship: Kb=IC50/(1+[agonist]/EC50), where “IC50” is determined from a four parameter fit of displacement curves, “[agonist]” is the agonist challenge concentration (nM), and “EC50” is determined from a four parameter fit of a full agonist concentration response curve (Cheng and Prusoff 1973). […]

Series [2] concerns the target T1, hCB-1. The experiment in a line: hCB1-Sf9 antagonist mode SPA GTP-γ-35S binding assay. The arrangement: purchased Applied Cell Sciences, Rockville, Md. In kind it is biochemical. To be noted: Sf9 membrane 22.7 μg; antagonist mode vs methanandamide; read-out: hCB-1 SPA GTPγS Sf9 Membrane 22.7 μg Antagonist Kb. How it is done: (§6) Compounds of the present invention may be tested for functional activity at the CB-1 and CB-2 receptors in both agonist and antagonist modes using SPA (Scintillation Proximity Assay) based GTP-γ-^35S binding assays. All assay components are prepared in assay buffer (20 mM HEPES, 100 mM NaCl, 5 mM MgCl2, pH 7.4) at room temperature. Semi-log dilutions of test compound are prepared in assay buffer containing BSA (0.125% final conc.) for the agonist mode assays. For the antagonist mode assays, test compounds are prepared in the same manner but also include an 80% efficacious dose of a full agonist (methanandamide). GTP-γ^35S binding for the antagonist assay may be measured in a 96 well format using a modification of an antibody capture technique previously described. (DeLapp, N W, et al. (1999) J Pharmacol Exp Ther 289:946-955.) The CB-2 receptor agonist activity may be measured using a similar method using hCB2-Sf9 membranes. The CB-1 receptor agonist activity may be measured using a whole membrane capture technique using hCB1-CHO membranes. All incubations are done at room temperature. […]
(§7) Data are analyzed as follows: Background is subtracted from all wells. […] Percent antagonist inhibition is calculated by first normalizing the data to the signal generated by a saturating concentration of the full agonist (methanandamide). Then the data are analyzed using a 4-parameter logistic reduced fit (Activity Base™ and XLFit3™ from IDBS, Emeryville, Calif.). Kb values are determined using a modification of the Cheng-Prusoff relationship: Kb=IC50/(1+[agonist]/EC50), where “IC50” is determined from a four parameter fit of displacement curves, “[agonist]” is the agonist challenge concentration (nM), and “EC50” is determined from a four parameter fit of a full agonist concentration response curve (Cheng and Prusoff 1973). Mean Kb values are calculated as a mean of at least three independent determinations±standard error of the mean (SEM). […]

For series [3], the target named is T2, hCB-2 (Homo sapiens, UniProt P34972).
T2 construct: purchased Perkin Elmer, Boston, Mass; host or cells: Sf9 cell membranes
The experiment in a line: hCB2-Sf9 antagonist mode SPA GTP-γ-35S binding assay. To be noted: antagonist mode vs methanandamide; read-out: hCB-2 SPA GTPγS Sf9 Membrane Antagonist Kb. Format: biochemical. The method, then:
as §6, §7

For series [4], the target named is T2, hCB-2. The experiment in a line: hCB2-Sf9 agonist mode SPA GTP-γ-35S binding assay. Format: biochemical. To be noted: read-out: hCB-2 SPA GTPγS Sf9 Membrane Agonist Relative EC50. How it is done: as §6
Data are analyzed as follows: Background is subtracted from all wells. […] Percent antagonist inhibition is calculated by first normalizing the data to the signal generated by a saturating concentration of the full agonist (methanandamide). […]

The target of a further series is T3, rCB-1 (Rattus norvegicus, UniProt P20272).
T3 construct: purchased Applied Cell Sciences, Rockville, Md; host or cells: CHO cell membranes
Description: rCB1-CHO antagonist mode SPA GTP-γ-35S binding assay. To be noted: antagonist mode vs methanandamide; read-out: rCB-1 SPA GTPγS CHO Membrane Antagonist Kb. In kind it is biochemical. How it is done: as §3, §4, §5

In series [5] the target is T1, hCB-1. The experiment in a line: hCB1-CHO agonist mode SPA GTP-γ-35S binding assay. In kind it is biochemical. On the set-up: purchased Applied Cell Sciences, Rockville, Md; host or cells: CHO cell membranes. To be noted: inverse agonism, read-out: hCB-1 SPA GTPγS CHO Membrane Agonist Relative EC50 inverse. The method, then:
as §3
hCB1-CHO membrane, GDP (1 μM final conc.), and saponin (10 μg/mL final conc., Sigma, St Louis, Mo.) are combined and prepared on ice as for the antagonist assays, above. Diluted test compounds, GTP-γ-^35S ([…] final conc.) and membranes are combined in the assay plate and incubated for 30 min. Then 1 mg/well Wheatgerm Agglutinin SPA beads (GE Healthcare, Piscataway, N.J.) are added, plates are sealed and vortexed and incubate for 1 hr. before spinning and counting in the same fashion as for the antagonist assays, above.
Data are analyzed as follows: Background is subtracted from all wells. Percent agonist efficacy is determine by normalizing agonist/inverse agonist dose response data to the response obtained for a full agonist (methanandamide). Percent antagonist inhibition is calculated by first normalizing the data to the signal generated by a saturating concentration of the full agonist (methanandamide). Then the data are analyzed using a 4-parameter logistic reduced fit (Activity Base™ and XLFit3™ from IDBS, Emeryville, Calif.). Kb values are determined using a modification of the Cheng-Prusoff relationship: Kb=IC50/(1+[agonist]/EC50), where “IC50” is determined from a four parameter fit of displacement curves, “[agonist]” is the agonist challenge concentration (nM), and “EC50” is determined from a four parameter fit of a full agonist concentration response curve (Cheng and Prusoff 1973). Mean Kb values are calculated as a mean of at least three independent determinations±standard error of the mean (SEM). […]

Structures can show the parent of a compound that is named as a salt. Where only a bound is given, the exact number is not on record here.

T1 sequence (P21554 whole entry): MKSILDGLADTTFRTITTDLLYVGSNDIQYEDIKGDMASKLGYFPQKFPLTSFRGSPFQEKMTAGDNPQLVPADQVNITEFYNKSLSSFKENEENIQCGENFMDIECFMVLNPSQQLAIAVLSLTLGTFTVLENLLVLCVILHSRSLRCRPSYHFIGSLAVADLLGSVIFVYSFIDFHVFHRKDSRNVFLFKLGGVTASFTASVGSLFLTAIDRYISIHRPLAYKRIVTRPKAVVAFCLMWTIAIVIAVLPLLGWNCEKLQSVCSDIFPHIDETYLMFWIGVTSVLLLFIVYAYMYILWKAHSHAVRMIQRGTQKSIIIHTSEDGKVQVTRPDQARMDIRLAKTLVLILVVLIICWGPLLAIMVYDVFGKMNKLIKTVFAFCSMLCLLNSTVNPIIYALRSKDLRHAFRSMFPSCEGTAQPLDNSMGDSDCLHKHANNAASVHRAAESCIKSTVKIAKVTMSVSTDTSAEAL
T2 sequence (P34972 whole entry): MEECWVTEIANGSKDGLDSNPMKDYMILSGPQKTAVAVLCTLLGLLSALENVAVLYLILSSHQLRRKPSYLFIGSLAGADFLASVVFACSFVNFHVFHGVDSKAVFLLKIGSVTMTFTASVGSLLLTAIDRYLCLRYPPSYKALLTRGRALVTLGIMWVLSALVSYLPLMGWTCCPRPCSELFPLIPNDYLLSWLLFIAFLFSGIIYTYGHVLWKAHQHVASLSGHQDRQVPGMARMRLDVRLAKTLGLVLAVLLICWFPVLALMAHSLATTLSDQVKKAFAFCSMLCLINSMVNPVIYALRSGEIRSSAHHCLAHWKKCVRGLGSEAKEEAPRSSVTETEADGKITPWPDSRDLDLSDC
T3 sequence (P20272 whole entry): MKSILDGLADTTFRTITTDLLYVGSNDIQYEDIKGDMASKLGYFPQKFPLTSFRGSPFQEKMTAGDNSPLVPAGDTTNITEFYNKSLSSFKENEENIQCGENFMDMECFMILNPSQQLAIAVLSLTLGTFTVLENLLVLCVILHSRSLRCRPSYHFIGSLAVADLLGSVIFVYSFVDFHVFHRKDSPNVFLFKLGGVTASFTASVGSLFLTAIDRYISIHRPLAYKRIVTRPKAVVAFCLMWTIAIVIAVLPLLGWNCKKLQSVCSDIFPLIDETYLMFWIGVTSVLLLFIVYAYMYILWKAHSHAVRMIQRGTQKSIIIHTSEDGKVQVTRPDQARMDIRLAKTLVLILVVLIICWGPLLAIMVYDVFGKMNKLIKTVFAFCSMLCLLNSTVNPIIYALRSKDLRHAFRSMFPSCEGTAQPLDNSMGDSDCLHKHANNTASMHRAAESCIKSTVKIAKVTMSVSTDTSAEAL

As for `CC(C)(N[C@@H]1C[C@H](c2cccc(OC(F)(F)F)c2)N(c2ccc(C(F)(F)F)cc2)C1=O)c1cccc(C(F)(F)F)n1` [Example 11, (3R,5R)-3-[1-Methyl-1-(6-trifluoromethyl-pyridin-2-yl)-ethylamino]-5-(3-trifluoromethoxy-phenyl)-1-(4-trifluoromethyl-phenyl)-pyrrolidin-2-one], the “minimum effective dose (MED) in forced swim test” value in the series with Male NIH Swiss mice (mice, p.o.) amounted to 3 mg/kg.
Regarding `CC(C)(N[C@@H]1C[C@H](c2cccc(OC(F)(F)F)c2)N(c2ccc(C#N)cc2)C1=O)c1cccc(C(F)(F)F)n1` [Example 27, 4-[(3R,5R)-3-[1-Methyl-1-(6-trifluoromethyl-pyridin-2-yl)-ethylamino]-2-oxo-5-(3-trifluoromethoxy-phenyl)-pyrrolidin-1-yl]-benzonitrile], the Seconds of immobility is 170 s in the series with Male NIH Swiss mice (1 mg/Kg p.o., mice); 128 s in the series with Male NIH Swiss mice (3 mg/Kg p.o., mice); 80 s with Male NIH Swiss mice (10 mg/Kg p.o., mice). Besides, the “Dunett's Test (0.05) * against vehicle, # against Imipramine” value with Male NIH Swiss mice (1 mg/Kg) was “#”; in the series with Male NIH Swiss mice (3 mg/Kg), “*”; in the series on Male NIH Swiss mice (10 mg/Kg), “*”. For the same molecule, the “duration of immobility in forced swim test” value with Male NIH Swiss mice (mice, p.o., result in words) is reported as “significantly reduce the duration of mobility in a dose dependent manner”.
As for `CC(C)(N[C@@H]1C[C@H](c2cccc(OC(F)(F)F)c2)N(c2ccc(C#N)cc2)C1=O)c1cccc(C(F)(F)F)n1` [Example 27HCl Salt, 4-[(3R,5R)-3-[1-methyl-1-(6-trifluoromethyl-pyridin-2-yl)-ethylamino]-2-oxo-5-(3-trifluoromethoxy-phenyl)-pyrrolidin-1-yl]-benzonitrile hydrochloride], the bioavailability in the series “Rat oral bioavailability” was found to be 58 ± 8.6%; in “Dog oral bioavailability”, 33 ± 13%.
As to `CC(C)(N[C@@H]1C[C@H](c2cccc(C(F)(F)F)c2)N(c2ccc(OC(F)(F)F)cc2)C1=O)c1cccc(C(F)(F)F)n1` [Example 28, (3R,5R)-3-[1-Methyl-1-(6-trifluoromethyl-pyridin-2-yl)-ethylamino]-5-(3-trifluoromethyl-phenyl)-1-(4-trifluoromethoxy-phenyl)-pyrrolidin-2-one], the Kb on hCB-1 [1] is 2.37 nM; on hCB-1 [2], 1.76 nM; on hCB-2 [3], more than 11.9 µM; at rCB-1, 0.756 nM. Besides, in the series with Male NIH Swiss mice (mice, p.o.), the “minimum effective dose (MED) in forced swim test” value turned out to be 10 mg/kg. The EC50 at hCB-2 [4] is more than 100 µM; at hCB-1 [5], 3.02 nM.
`CN(C)CCCN1c2ccccc2CCc2ccccc21` [Imipramine, reference compound]: in the series with Male NIH Swiss mice (15 mg/Kg), the “Dunett's Test (0.05) * against vehicle, # against Imipramine” value is given as “*”. In the series on Male NIH Swiss mice (15 mg/Kg, mice), this molecule came in with a Seconds of immobility of 80 s.
